How the values were obtained:
[1] = molecular target: Serine/threonine-protein kinase BRSK1 (Homo sapiens) (UniProt Q8TDC3); test: Inhibition of recombinant human BRSK1 ( 2 to end residues) assessed as residual activity at 1 uM using KKKVSRSGLYRSPSMPENLNRPR as substrate incubated for 40 mins in presence of [gamma-33ATP] by scintillation counting based radiometry assay relative to control
[2] = molecular target: Serine/threonine-protein kinase tousled-like 1 (Homo sapiens) (UniProt Q9UKI8); test: Inhibition of recombinant full-length human TLK1 at 1 uM assessed as residual activity at 1 uM using casein as substrate measured after 40 mins in presence of [gamma33P]ATP by scintillation counting method relative to control
[3] = molecular target: NT-3 growth factor receptor (Homo sapiens) (UniProt Q16288); test: Inhibition of human TrkC (510 to end residues) assessed as residual activity at 1 uM using GEEPLYWSFPAKKK as substrate measured after 40 mins in presence of [gamma33P]ATP by scintillation counting method relative to control
[4] = system: Serine/threonine-protein kinase Nek4 (Homo sapiens), P51957 [P225A]; test: Inhibition of recombinant full-length human NEK4 P225A mutant assessed as residual activity at 1 uM using myelin basic protein as substrate measured after 40 mins in presence of [gamma33P]ATP by scintillation counting method relative to control
[5] = system: Receptor tyrosine-protein kinase erbB-2 (Homo sapiens), P04626 [G778D]; test: Inhibition of recombinant human ERBB2 G778D mutant (676 to end residues) assessed as residual activity at 1 uM using poly(Glu, Tyr) 4:1 as substrate at 40 mins in presence of [gamma-33ATP] by scintillation counting based radiometry assay relative to control
[6] = molecular target: Serine/threonine-protein kinase WNK1 (Homo sapiens) (UniProt Q9H4A3); test: Inhibition of human WNK1 (1 to 491 residues) assessed as residual activity at 1 uM using myelin basic protein as substrate measured after 120 mins in presence of [gamma33P]ATP by scintillation counting method relative to control
[7] = molecular target: Calcium/calmodulin-dependent protein kinase kinase 1 (Homo sapiens) (UniProt Q8N5S9); test: Inhibition of recombinant full length human CaMKK1 assessed as residual activity at 1 uM […] incubated for 40 mins in presence of [gamma-33ATP] by scintillation counting based radiometry assay relative to control
[8] = molecular target: Serine/threonine-protein kinase SBK1 (Homo sapiens) (UniProt Q52WX2); test: Inhibition of recombinant full-length human SBK1 assessed as residual activity at 1 uM using KKLRRTLSVA as substrate measured after 120 mins in presence of [gamma33P]ATP by scintillation counting method relative to control
Homo sapiens [9] = organism: Homo sapiens; test: Inhibition of human MAPK2 assessed as residual activity at 1 uM relative to control
[10] = molecular target: Ephrin type-A receptor 7 (Homo sapiens) (UniProt Q15375); test: Inhibition of recombinant human EphA7 (613 to 909 residues) assessed as residual activity at 1 uM using KTFCGTPEYLAPEVRREPRILSEEEQEMFRDFDYIADWC as substrate at 40 mins in presence of [gamma-33ATP] by scintillation counting based radiometry assay relative to control
[11] = molecular target: Dual specificity mitogen-activated protein kinase kinase 1 (Homo sapiens) (UniProt Q02750); test: Inhibition of recombinant human MEK1 assessed as residual activity at 1 uM using inactive MAPK2 as substrate incubated for 40 mins in presence of [gamma-33ATP by scintillation counting based radiometry assay relative to control
[12] = molecular target: Inhibitor of nuclear factor kappa-B kinase subunit alpha (Homo sapiens) (UniProt O15111); test: Inhibition of full length human IKKalpha assessed as residual activity at 1 uM using peptide as substrate after 40 mins by [gamma-33ATP] radiometric assay relative to control
[13] = molecular target: Serine/threonine-protein kinase Nek1 (Homo sapiens) (UniProt Q96PY6); test: Inhibition of recombinant human NEK1 (1 to 505 residues) assessed as residual activity at 1 uM using RLGRDKYKTLRQI as substrate measured after 40 mins in presence of [gamma33P]ATP by scintillation counting based radiometry assay relative to control
[14] = molecular target: Inhibitor of nuclear factor kappa-B kinase subunit epsilon (Homo sapiens) (UniProt Q14164); test: Inhibition of full length human IKKepsilon assessed as residual activity at 1 uM using casein as substrate after 40 mins by [gamma-33ATP] radiometric assay relative to control
[15] = molecular target: Tyrosine-protein kinase ZAP-70 (Homo sapiens) (UniProt P43403); test: Inhibition of recombinant full-length human ZAP70 at 1 uM assessed as residual activity at 1 uM using poly(Glu, Tyr) 4:1 as substrate measured after 40 mins in presence of [gamma33P]ATP by scintillation counting method relative to control
Homo sapiens [16] = organism: Homo sapiens; test: Inhibition of recombinant human MAPKAPK2 A399G mutant (46 to end residues) assessed as residual activity at 1 uM using KKLNRTLSVA as substrate incubated for 40 mins in presence of [gamma-33ATP by scintillation counting based radiometry assay relative to control
[17] = molecular target: Mitogen-activated protein kinase kinase kinase 2 (Homo sapiens) (UniProt Q9Y2U5); test: Inhibition of recombinant full length human MEKK2 assessed as residual activity at 1 uM using myelin basic protein as substrate incubated for 40 mins in presence of [gamma-33ATP by scintillation counting based radiometry assay relative to control
[18] = molecular target: Phosphorylase b kinase gamma catalytic chain, skeletal muscle/heart isoform (Homo sapiens) (UniProt Q16816); test: Inhibition of recombinant full-length human PhKgamma1 assessed as residual activity at 1 uM using KKLNRTLSFAEPG as substrate measured after 120 mins in presence of [gamma33P]ATP by scintillation counting method relative to control
[19] = molecular target: TRAF2 and NCK-interacting protein kinase (Homo sapiens) (UniProt Q9UKE5); test: Inhibition of human TNIK (1 to 367 residues) assessed as residual activity at 1 uM using RLGRDKYKTLRQIRQ as substrate measured after 40 mins in presence of [gamma33P]ATP by scintillation counting method relative to control
[20] = molecular target: Proto-oncogene tyrosine-protein kinase receptor Ret (Homo sapiens) (UniProt P07949); test: Inhibition of recombinant human Ret (658 to end residues) assessed as residual activity at 1 uM using KKKSPGEYVNIEFG as substrate measured after 40 mins in presence of [gamma33P]ATP by scintillation counting method relative to control
[21] = molecular target: Interferon-induced, double-stranded RNA-activated protein kinase (Homo sapiens) (UniProt P19525); test: Inhibition of recombinant human PKR (252 to end residues) assessed as residual activity at 1 uM using RSRSRSRSRSRSRSR as substrate measured after 40 mins in presence of [gamma33P]ATP by scintillation counting method relative to control
[22] = molecular target: Casein kinase I isoform delta (Homo sapiens) (UniProt P48730); test: Inhibition of recombinant human CK1delta (1 to 294 residues) assessed as residual activity at 1 uM using KRRRALS(p)VASLPGL as substrate incubated for 40 mins in presence of [gamma-33ATP] by scintillation counting based radiometry assay relative to control

Chain of Inhibitor of nuclear factor kappa-B kinase subunit alpha (Homo sapiens) (O15111 whole entry, the tested form may be a part): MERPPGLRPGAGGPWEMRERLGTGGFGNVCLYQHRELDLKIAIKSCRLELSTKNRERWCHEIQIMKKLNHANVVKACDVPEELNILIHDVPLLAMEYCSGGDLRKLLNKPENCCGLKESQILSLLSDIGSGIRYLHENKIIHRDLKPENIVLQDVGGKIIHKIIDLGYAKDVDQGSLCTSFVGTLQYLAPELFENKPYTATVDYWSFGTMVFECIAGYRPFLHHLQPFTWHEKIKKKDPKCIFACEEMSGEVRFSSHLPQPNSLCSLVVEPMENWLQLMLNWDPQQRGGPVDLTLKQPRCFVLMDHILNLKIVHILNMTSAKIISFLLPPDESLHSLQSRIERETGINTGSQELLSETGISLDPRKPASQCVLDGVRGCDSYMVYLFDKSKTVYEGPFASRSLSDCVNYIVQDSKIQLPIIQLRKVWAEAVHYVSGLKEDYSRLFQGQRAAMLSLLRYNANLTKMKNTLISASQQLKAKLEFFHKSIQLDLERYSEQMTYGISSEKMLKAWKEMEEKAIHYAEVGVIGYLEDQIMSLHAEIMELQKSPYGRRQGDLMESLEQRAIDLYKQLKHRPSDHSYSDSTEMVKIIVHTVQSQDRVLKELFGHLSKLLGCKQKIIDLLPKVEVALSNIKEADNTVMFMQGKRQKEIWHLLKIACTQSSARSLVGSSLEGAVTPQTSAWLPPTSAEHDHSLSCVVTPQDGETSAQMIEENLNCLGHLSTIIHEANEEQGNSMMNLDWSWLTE
Chain of Serine/threonine-protein kinase SBK1 (Homo sapiens) (Q52WX2 whole entry): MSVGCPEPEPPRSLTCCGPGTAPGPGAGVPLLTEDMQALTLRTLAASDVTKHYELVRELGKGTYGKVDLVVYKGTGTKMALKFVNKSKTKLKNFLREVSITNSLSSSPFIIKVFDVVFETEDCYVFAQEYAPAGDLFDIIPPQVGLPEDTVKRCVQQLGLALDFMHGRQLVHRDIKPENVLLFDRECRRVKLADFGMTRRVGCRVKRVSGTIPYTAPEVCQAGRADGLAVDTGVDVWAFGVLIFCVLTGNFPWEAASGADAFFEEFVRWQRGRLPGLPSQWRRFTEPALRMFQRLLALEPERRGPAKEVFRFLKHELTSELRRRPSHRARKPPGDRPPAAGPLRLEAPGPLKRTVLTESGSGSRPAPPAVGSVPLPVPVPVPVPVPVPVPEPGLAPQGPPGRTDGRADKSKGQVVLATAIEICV
Chain of Mitogen-activated protein kinase kinase kinase 2 (Homo sapiens) (Q9Y2U5 whole entry, canonical isoform): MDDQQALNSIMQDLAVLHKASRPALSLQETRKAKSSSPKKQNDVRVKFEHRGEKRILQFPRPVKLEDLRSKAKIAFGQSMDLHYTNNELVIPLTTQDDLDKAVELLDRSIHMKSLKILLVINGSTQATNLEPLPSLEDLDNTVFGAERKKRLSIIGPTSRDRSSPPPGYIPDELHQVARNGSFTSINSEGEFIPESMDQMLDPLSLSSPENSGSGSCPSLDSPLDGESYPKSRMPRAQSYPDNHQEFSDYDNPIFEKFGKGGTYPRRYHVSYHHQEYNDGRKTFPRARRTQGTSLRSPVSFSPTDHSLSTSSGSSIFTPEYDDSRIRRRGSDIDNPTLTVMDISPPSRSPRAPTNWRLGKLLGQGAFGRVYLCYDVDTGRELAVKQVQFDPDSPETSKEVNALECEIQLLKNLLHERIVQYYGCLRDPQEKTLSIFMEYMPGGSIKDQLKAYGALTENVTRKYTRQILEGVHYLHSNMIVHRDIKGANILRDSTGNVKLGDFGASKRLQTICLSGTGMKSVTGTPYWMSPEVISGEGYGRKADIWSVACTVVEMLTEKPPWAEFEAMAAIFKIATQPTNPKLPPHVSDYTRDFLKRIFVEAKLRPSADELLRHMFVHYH
Chain of Serine/threonine-protein kinase Nek4 (Homo sapiens), P51957 [P225A] (P51957 whole entry P225A): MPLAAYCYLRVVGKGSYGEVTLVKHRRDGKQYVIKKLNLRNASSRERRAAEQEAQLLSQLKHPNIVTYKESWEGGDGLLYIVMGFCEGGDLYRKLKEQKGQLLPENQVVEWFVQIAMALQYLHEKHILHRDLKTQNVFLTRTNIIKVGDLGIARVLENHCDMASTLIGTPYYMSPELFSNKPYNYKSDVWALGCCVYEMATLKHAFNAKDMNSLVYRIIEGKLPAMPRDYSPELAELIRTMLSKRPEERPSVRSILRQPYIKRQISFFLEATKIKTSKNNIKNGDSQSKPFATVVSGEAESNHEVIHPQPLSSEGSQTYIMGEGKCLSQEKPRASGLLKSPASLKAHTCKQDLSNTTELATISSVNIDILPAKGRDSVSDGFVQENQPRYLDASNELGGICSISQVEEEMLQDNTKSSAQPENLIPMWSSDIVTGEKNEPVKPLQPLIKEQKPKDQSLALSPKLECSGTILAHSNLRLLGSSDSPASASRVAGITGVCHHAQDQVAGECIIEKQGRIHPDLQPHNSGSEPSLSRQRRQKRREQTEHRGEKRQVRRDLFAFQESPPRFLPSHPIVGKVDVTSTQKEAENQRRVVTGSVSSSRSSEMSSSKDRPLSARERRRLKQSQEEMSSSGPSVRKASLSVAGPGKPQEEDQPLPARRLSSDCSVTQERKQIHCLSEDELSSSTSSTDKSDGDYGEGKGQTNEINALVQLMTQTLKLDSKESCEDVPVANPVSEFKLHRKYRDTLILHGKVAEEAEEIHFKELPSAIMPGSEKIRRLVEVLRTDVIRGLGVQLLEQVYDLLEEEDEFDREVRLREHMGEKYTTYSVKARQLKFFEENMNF
Chain of Serine/threonine-protein kinase WNK1 (Homo sapiens) (Q9H4A3 whole entry, looked up, the tested form may be a part): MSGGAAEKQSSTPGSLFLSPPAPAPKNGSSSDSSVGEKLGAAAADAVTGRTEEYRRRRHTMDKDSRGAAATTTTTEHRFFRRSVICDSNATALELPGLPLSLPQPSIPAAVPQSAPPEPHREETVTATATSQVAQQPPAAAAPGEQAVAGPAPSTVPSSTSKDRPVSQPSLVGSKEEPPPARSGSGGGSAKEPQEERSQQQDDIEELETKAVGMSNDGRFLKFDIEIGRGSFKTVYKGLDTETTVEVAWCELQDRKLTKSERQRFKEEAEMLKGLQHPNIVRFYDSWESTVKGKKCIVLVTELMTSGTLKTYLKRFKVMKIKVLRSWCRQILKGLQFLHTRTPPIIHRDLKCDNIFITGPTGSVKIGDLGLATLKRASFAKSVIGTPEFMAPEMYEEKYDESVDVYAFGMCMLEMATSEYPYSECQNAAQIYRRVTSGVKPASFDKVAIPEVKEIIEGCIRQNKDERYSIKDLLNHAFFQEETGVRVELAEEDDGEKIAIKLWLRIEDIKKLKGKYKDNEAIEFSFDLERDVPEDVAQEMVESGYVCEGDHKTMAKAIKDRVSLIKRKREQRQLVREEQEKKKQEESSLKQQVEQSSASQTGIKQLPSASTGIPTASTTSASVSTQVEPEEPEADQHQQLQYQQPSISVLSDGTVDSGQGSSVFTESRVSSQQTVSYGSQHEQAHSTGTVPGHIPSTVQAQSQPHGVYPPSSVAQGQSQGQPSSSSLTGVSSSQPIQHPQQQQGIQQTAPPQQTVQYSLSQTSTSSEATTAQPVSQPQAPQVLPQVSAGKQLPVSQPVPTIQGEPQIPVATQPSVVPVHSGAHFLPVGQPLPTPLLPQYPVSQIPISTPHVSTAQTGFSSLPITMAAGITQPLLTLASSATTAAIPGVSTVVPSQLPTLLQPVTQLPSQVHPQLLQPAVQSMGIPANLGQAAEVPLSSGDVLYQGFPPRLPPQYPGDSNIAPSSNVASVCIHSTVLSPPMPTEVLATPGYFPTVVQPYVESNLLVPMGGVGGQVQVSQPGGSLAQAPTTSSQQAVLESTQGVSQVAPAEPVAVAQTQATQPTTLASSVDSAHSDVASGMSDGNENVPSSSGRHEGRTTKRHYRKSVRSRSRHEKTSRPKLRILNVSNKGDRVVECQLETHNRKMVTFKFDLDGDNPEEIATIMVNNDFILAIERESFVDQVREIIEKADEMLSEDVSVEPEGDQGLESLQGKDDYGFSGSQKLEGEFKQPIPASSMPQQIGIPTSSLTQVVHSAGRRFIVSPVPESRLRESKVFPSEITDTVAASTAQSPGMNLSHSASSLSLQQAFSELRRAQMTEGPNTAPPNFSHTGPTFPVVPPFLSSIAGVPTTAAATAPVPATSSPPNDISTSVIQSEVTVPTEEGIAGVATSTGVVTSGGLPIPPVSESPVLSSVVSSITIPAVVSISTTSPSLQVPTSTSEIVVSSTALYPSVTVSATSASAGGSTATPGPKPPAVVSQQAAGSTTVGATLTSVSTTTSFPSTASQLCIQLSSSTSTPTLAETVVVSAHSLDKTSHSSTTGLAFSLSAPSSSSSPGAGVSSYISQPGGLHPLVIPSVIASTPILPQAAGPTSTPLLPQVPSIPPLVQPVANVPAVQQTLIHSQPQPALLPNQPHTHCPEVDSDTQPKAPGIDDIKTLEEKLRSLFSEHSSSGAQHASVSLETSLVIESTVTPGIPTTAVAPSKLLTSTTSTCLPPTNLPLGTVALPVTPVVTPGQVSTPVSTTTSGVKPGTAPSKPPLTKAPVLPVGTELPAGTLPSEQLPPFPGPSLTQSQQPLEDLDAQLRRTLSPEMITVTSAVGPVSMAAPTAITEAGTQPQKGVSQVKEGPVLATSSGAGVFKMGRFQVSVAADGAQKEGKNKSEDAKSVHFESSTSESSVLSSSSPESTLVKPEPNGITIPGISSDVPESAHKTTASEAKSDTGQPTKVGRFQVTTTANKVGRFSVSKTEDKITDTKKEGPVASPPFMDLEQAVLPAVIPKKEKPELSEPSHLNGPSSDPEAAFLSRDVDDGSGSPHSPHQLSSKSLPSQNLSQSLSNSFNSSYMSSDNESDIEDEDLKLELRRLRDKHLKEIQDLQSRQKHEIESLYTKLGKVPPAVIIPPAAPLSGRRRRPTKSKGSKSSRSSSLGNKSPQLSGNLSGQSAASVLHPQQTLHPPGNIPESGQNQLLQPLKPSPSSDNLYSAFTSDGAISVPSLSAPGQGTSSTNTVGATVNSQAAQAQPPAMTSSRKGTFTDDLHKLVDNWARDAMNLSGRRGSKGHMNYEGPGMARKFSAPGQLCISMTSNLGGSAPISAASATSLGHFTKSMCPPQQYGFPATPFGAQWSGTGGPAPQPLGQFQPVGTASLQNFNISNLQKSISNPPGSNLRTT

## N=C1NC(=O)/C(=C\c2ccc(-c3cccc([N+](=O)[O-])c3)o2)S1
[1]
  Activity: 65%
[2]
  Activity: 110%
[3]
  Activity: 104%
[4]
  Activity: 98%
[5]
  Activity: 103%
[6]
  Activity: 97%
[7]
  Activity: 92%
[8]
  Activity: 98%
Homo sapiens [9]
  Activity: 103%
[10]
  Activity: 101%
[11]
  Activity: 88%
[12]
  Activity: 102%
[13]
  Activity: 107%
[14]
  Activity: 100%
[15]
  Activity: 106%
Homo sapiens [16]
  Activity: 103%
[17]
  Activity: 93%
[18]
  Activity: 91%
[19]
  Activity: 74%
[20]
  Activity: 92%
[21]
  Activity: 98%
[22]
  Activity: 101%

## C=CCOC(=O)c1cc(-c2ccc(/C=C3/NC(=S)NC3=O)o2)ccc1Cl
[1]
  Activity: 89%
[2]
  Activity: 101%
[3]
  Activity: 98%
[4]
  Activity: 92%
[5]
  Activity: 118%
[6]
  Activity: 94%
[7]
  Activity: 96%
[8]
  Activity: 112%
Homo sapiens [9]
  Activity: 99%
[10]
  Activity: 99%
[11]
  Activity: 96%
[12]
  Activity: 104%
[13]
  Activity: 95%
[14]
  Activity: 98%
[15]
  Activity: 107%
Homo sapiens [16]
  Activity: 106%
[17]
  Activity: 98%
[18]
  Activity: 94%
[19]
  Activity: 52%
[20]
  Activity: 102%
[21]
  Activity: 98%
[22]
  Activity: 94%
